In patent US11377442B2, “Small molecule agonists and antagonists of NR2F6 activity” (ZANDER THERAPEUTICS, INC., priority 2016, dated 2022):
Where two headings read alike, the source gives them in different places.

Assays:
Type in all cases: cell-based
[1] = tested on: HEK293 pGL4; assay: Firefly_pGL signal, cmpd/DMSO (pGL4 control cells); conditions: Homo sapiens
[2] = biological target: T1, NR2F6 LBD (Homo sapiens, UniProt P10588); assay: NR2F6 LBD transient transfection; conditions: LBD
T1 construct: expressed in transfected cells
T1 sequence (P10588 165-393 limits assumed): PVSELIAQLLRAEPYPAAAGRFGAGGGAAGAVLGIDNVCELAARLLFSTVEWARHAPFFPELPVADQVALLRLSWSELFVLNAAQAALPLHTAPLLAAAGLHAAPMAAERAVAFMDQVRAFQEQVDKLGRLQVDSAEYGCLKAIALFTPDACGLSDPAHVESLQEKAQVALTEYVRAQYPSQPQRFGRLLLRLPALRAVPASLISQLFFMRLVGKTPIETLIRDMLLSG
Procedure, shortened: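 LBD-transfected cells treated at 40, 10, 2 and 0.5 μM (4 replicates); cytotoxicity measured in parallel, normalized to DMSO (0%) and zero signal (100%). Higher concentrations excluded where signal loss reflected toxicity.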

[3] = tested on: Renilla; assay: Renilla signal in NR2F6 agonist screening, cmpd/DMSO; conditions: Renilla, F4
[4] = biological target: T2, NR2F6 (Homo sapiens, UniProt P10588); assay: NR2F6 agonist screening, Firefly signal cmpd/DMSO
T2 construct: expressed in transfected cells; also transient transfection
T2 sequence (P10588 1-404): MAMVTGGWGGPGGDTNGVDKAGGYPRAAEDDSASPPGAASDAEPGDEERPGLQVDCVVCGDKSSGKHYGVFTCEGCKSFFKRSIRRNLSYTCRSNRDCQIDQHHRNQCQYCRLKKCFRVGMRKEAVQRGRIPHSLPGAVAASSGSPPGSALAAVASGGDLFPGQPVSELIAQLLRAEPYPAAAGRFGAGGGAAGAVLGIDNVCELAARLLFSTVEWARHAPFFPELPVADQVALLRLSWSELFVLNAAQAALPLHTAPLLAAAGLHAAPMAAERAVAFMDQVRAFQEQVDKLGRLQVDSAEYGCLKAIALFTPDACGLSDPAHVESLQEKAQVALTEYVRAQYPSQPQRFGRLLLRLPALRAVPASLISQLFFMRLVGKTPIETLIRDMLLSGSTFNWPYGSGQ

[5] = HEK293, 0.5 uM, pGL4, read-out: Firefly pGL4, cmpd/DMSO (mean)
[6] = HEK293, 2 uM, pGL4, read-out: Firefly pGL4, cmpd/DMSO (mean)
[7] = HEK293, 10 uM, pGL4, read-out: Firefly pGL4, cmpd/DMSO (mean)
[8] = HEK293, 40 uM, pGL4, read-out: Firefly pGL4, cmpd/DMSO (mean)
[9] = HEK293, pGL4, 1% FBS, 0.5 uM, read-out: Firefly, pGL4, 1% FBS, cmpd/DMSO (mean)
[10] = HEK293, pGL4, 1% FBS, 2 uM, read-out: Firefly, pGL4, 1% FBS, cmpd/DMSO (mean)
[11] = HEK293, pGL4, 1% FBS, 10 uM, read-out: Firefly, pGL4, 1% FBS, cmpd/DMSO (mean)
[12] = HEK293, pGL4, 1% FBS, 40 uM, read-out: Firefly, pGL4, 1% FBS, cmpd/DMSO (mean)
[13] = HEK293, pGL4, 10% FBS, 0.5 uM, read-out: Firefly, pGL4, 10% FBS, cmpd/DMSO (mean)
[14] = HEK293, pGL4, 10% FBS, 2 uM, read-out: Firefly, pGL4, 10% FBS, cmpd/DMSO (mean)
[15] = HEK293, pGL4, 10% FBS, 10 uM, read-out: Firefly, pGL4, 10% FBS, cmpd/DMSO (mean)
[16] = HEK293, pGL4, 10% FBS, 40 uM, read-out: Firefly, pGL4, 10% FBS, cmpd/DMSO (mean)
[17] = read-out: Renilla, F4, cmpd/DMSO (mean)
[18] = 1% FBS, read-out: Renilla, F4, 1% FBS, cmpd/DMSO (mean)
[19] = 10% FBS, read-out: Renilla, F4, 10% FBS, cmpd/DMSO (mean)

## O=S1(=O)C[C@H](NC2CCCC2)[C@@H](S(=O)(=O)c2ccc(F)cc2)C1 [Compound D114]
[1]; [5]
  fold induction at 0.5 µM: 1.1
[1]; [6]
  fold induction at 2 µM: 1.3
[1]; [7]
  fold induction at 10 µM: 2
[1]; [8]
  fold induction at 40 µM: 2
[1]; [9]
  fold induction at 0.5 µM: 1.1
[1]; [10]
  fold induction at 2 µM: 1.3
[1]; [11]
  fold induction at 10 µM: 1.7
[1]; [12]
  fold induction at 40 µM: 1.5
[1]; [13]
  fold induction at 0.5 µM: 1.3
[1]; [14]
  fold induction at 2 µM: 1.3
[1]; [15]
  fold induction at 10 µM: 1.5
[1]; [16]
  fold induction at 40 µM: 2
[2]; 0.5 uM
  Firefly LBD, cmpd/DMSO (mean): 1.1
[2]; 2 uM
  Firefly LBD, cmpd/DMSO (mean): 1.3
[2]; 10 uM
  Firefly LBD, cmpd/DMSO (mean): 1.9
[2]; 40 uM
  Firefly LBD, cmpd/DMSO (mean): 2.2
[3]; [17]
  fold induction at 0.5 µM: 1
  fold induction at 2 µM: 1.1
  fold induction at 10 µM: 1.2
  fold induction at 40 µM: 1.3
[3]; [18]
  fold induction at 0.5 µM: 1.1
  fold induction at 2 µM: 1.2
  fold induction at 10 µM: 1.7
  fold induction at 40 µM: 1.8
[3]; [19]
  fold induction at 0.5 µM: 0.9
  fold induction at 2 µM: 1
  fold induction at 10 µM: 1.1
  fold induction at 40 µM: 1.5
[4]; 0.5 uM
  Firefly F4, cmpd/DMSO (mean): 1.6
[4]; 2 uM
  Firefly F4, cmpd/DMSO (mean): 1.6
[4]; 10 uM
  Firefly F4, cmpd/DMSO (mean): 2.4
[4]; 40 uM
  Firefly F4, cmpd/DMSO (mean): 3.6
[4]; 10% FBS, 40 uM
  F4, Firefly/Renilla for S/B(F4) > 3: 2.1
  Firefly, F4/pGL4 for S/B(F4) > 3: 1.6
  Firefly, F4, 10% FBS, cmpd/DMSO (mean): 3.2
[4]; 1% FBS, 0.5 uM
  Firefly, F4, 1% FBS, cmpd/DMSO (mean): 1.3
[4]; 1% FBS, 2 uM
  Firefly, F4, 1% FBS, cmpd/DMSO (mean): 1.0
[4]; 1% FBS, 10 uM
  Firefly, F4, 1% FBS, cmpd/DMSO (mean): 1.8
[4]; 1% FBS, 40 uM
  Firefly, F4, 1% FBS, cmpd/DMSO (mean): 2.2
[4]; 10% FBS, 0.5 uM
  Firefly, F4, 10% FBS, cmpd/DMSO (mean): 1.2
[4]; 10% FBS, 2 uM
  Firefly, F4, 10% FBS, cmpd/DMSO (mean): 1.1
[4]; 10% FBS, 10 uM
  Firefly, F4, 10% FBS, cmpd/DMSO (mean): 1.7

## C[C@@H]1C[C@H](C)CN([C@H]2CS(=O)(=O)C[C@@H]2S(=O)(=O)c2ccccc2)C1 [Compound D112]
[1]; [5]
  fold induction at 0.5 µM: 1
[1]; [6]
  fold induction at 2 µM: 1.2
[1]; [7]
  fold induction at 10 µM: 2.2
[1]; [8]
  fold induction at 40 µM: 2.2
[1]; [9]
  fold induction at 0.5 µM: 1.3
[1]; [10]
  fold induction at 2 µM: 1.2
[1]; [11]
  fold induction at 10 µM: 1.7
[1]; [12]
  fold induction at 40 µM: 1.2
[1]; [13]
  fold induction at 0.5 µM: 1.3
[1]; [14]
  fold induction at 2 µM: 1
[1]; [15]
  fold induction at 10 µM: 1.5
[1]; [16]
  fold induction at 40 µM: 1.3
[2]; 0.5 uM
  Firefly LBD, cmpd/DMSO (mean): 1.1
[2]; 2 uM
  Firefly LBD, cmpd/DMSO (mean): 1.2
[2]; 10 uM
  Firefly LBD, cmpd/DMSO (mean): 1.8
[2]; 40 uM
  Firefly LBD, cmpd/DMSO (mean): 1.9
[3]; [17]
  fold induction at 0.5 µM: 1
  fold induction at 2 µM: 1.1
  fold induction at 10 µM: 1.3
  fold induction at 40 µM: 1.6
[3]; [18]
  fold induction at 0.5 µM: 1.1
  fold induction at 2 µM: 1.1
  fold induction at 10 µM: 1.4
  fold induction at 40 µM: 2
[3]; [19]
  fold induction at 0.5 µM: 1
  fold induction at 2 µM: 1
  fold induction at 10 µM: 1.3
  fold induction at 40 µM: 2.1
[4]; 0.5 uM
  Firefly F4, cmpd/DMSO (mean): 1.2
[4]; 2 uM
  Firefly F4, cmpd/DMSO (mean): 1.9
[4]; 10 uM
  Firefly F4, cmpd/DMSO (mean): 2.8
[4]; 40 uM
  Firefly F4, cmpd/DMSO (mean): 2.6
[4]; 1% FBS, 40 uM
  F4, Firefly/Renilla for S/B(F4) > 3: 1.6
  Firefly, F4/pGL4 for S/B(F4) > 3: 2.7
  Firefly, F4, 1% FBS, cmpd/DMSO (mean): 3.2
[4]; 10% FBS, 40 uM
  F4, Firefly/Renilla for S/B(F4) > 3: 2.3
  Firefly, F4/pGL4 for S/B(F4) > 3: 3.7
  Firefly, F4, 10% FBS, cmpd/DMSO (mean): 5.0
[4]; 1% FBS, 0.5 uM
  Firefly, F4, 1% FBS, cmpd/DMSO (mean): 1.1
[4]; 1% FBS, 2 uM
  Firefly, F4, 1% FBS, cmpd/DMSO (mean): 0.9
[4]; 1% FBS, 10 uM
  Firefly, F4, 1% FBS, cmpd/DMSO (mean): 1.6
[4]; 10% FBS, 0.5 uM
  Firefly, F4, 10% FBS, cmpd/DMSO (mean): 1.2
[4]; 10% FBS, 2 uM
  Firefly, F4, 10% FBS, cmpd/DMSO (mean): 1.2
[4]; 10% FBS, 10 uM
  Firefly, F4, 10% FBS, cmpd/DMSO (mean): 1.5

## COCCN[C@H]1CS(=O)(=O)C[C@@H]1S(=O)(=O)c1cccs1 [Compound D107]
[1]; [5]
  fold induction at 0.5 µM: 1.2
[1]; [6]
  fold induction at 2 µM: 1.5
[1]; [7]
  fold induction at 10 µM: 2
[1]; [8]
  fold induction at 40 µM: 2.5
[1]; [9]
  fold induction at 0.5 µM: 1.3
[1]; [10]
  fold induction at 2 µM: 1.4
[1]; [11]
  fold induction at 10 µM: 1.8
[1]; [12]
  fold induction at 40 µM: 1.4
[1]; [13]
  fold induction at 0.5 µM: 1.1
[1]; [14]
  fold induction at 2 µM: 1.3
[1]; [15]
  fold induction at 10 µM: 1.7
[1]; [16]
  fold induction at 40 µM: 2.3
[2]; 0.5 uM
  Firefly LBD, cmpd/DMSO (mean): 0.9
[2]; 2 uM
  Firefly LBD, cmpd/DMSO (mean): 1.1
[2]; 10 uM
  Firefly LBD, cmpd/DMSO (mean): 2.2
[2]; 40 uM
  Firefly LBD, cmpd/DMSO (mean): 2.2
[3]; [17]
  fold induction at 0.5 µM: 1.1
  fold induction at 2 µM: 1
  fold induction at 10 µM: 1.2
  fold induction at 40 µM: 1.5
[3]; [18]
  fold induction at 0.5 µM: 0.9
  fold induction at 2 µM: 1.2
  fold induction at 10 µM: 1.3
  fold induction at 40 µM: 1.8
[3]; [19]
  fold induction at 0.5 µM: 1
  fold induction at 2 µM: 1
  fold induction at 10 µM: 1.3
  fold induction at 40 µM: 2.1
[4]; 0.5 uM
  Firefly F4, cmpd/DMSO (mean): 1.3
[4]; 2 uM
  Firefly F4, cmpd/DMSO (mean): 1.6
[4]; 10 uM
  Firefly F4, cmpd/DMSO (mean): 2.2
[4]; 40 uM
  Firefly F4, cmpd/DMSO (mean): 4.0
[4]; 1% FBS, 40 uM
  F4, Firefly/Renilla for S/B(F4) > 3: 2.2
  Firefly, F4/pGL4 for S/B(F4) > 3: 2.6
  Firefly, F4, 1% FBS, cmpd/DMSO (mean): 3.8
[4]; 10% FBS, 40 uM
  F4, Firefly/Renilla for S/B(F4) > 3: 2.9
  Firefly, F4/pGL4 for S/B(F4) > 3: 2.7
  Firefly, F4, 10% FBS, cmpd/DMSO (mean): 6.1
[4]; 1% FBS, 0.5 uM
  Firefly, F4, 1% FBS, cmpd/DMSO (mean): 1.5
[4]; 1% FBS, 2 uM
  Firefly, F4, 1% FBS, cmpd/DMSO (mean): 0.8
[4]; 1% FBS, 10 uM
  Firefly, F4, 1% FBS, cmpd/DMSO (mean): 1.4
[4]; 10% FBS, 0.5 uM
  Firefly, F4, 10% FBS, cmpd/DMSO (mean): 0.8
[4]; 10% FBS, 2 uM
  Firefly, F4, 10% FBS, cmpd/DMSO (mean): 1.4
[4]; 10% FBS, 10 uM
  Firefly, F4, 10% FBS, cmpd/DMSO (mean): 1.5
